Experimental data as given in US9023821B2, “Use of MicroRNA for treating diseases associated with a dysfunction of the cilia in multiciliated epithelial cells” (Centre National de la Recherche Scientifique, priority 2009, dated 2015).

Assays:
[1] = tested on: basal cells and pyramidal cells of the airway epithelium; assay: miRNA expression in sorted basal cells versus pyramidal cells (ciliated + secretory), HTS and Agilent chips; parameters: species or system human; settings: for Modulation of expression of the miRNAs in pyramidal cells (323(−)) relative to basal cells 323(+): HTS and Agilent chips; for Intensity of the level of expression in log2 in pyramidal cells (323(−)): pyramidal cells (ciliated + secretory)
How it was run: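 Sorted basal versus ciliated/mucus-secreting cells; markers CD151 and tissue factor; donors n=3; miRNA by Agilent chip or HTS.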

[2] = tested on: human airway epithelial cells (HAECs); assay: High-throughput sequencing (HTS) of miRNAs at four stages of differentiation of HAECs; settings: for Modulation (ratio of the level of intensity of expression in log2 in two stages of differentiation) measured by high-throughput sequencing, D7 − D0 / Modulation (ratio of the level of intensity of expression in log2 in two stages of differentiation) measured by high-throughput sequencing, FC − D7 / Modulation (ratio of the level of intensity of expression in log2 in two stages of differentiation) measured by high-throughput sequencing, WD − D0 / Modulation (ratio of the level of intensity of expression in log2 in two stages of differentiation) measured by high-throughput sequencing, WD − FC / Level of intensity of expression in log2 measured by high-throughput sequencing, D0 / Level of intensity of expression in log2 measured by high-throughput sequencing, D7 / Level of intensity of expression in log2 measured by high-throughput sequencing, FC / Level of intensity of expression in log2 measured by high-throughput sequencing, WD: Table VI; for Abundance (%), D0: ALI-D0; for Abundance (%), D7: ALI-D7; for Abundance (%), FC: ALI-FC; for Abundance (%), WD: ALI-WD; for Level of intensity of expression in log2 At the differentiated stage (WD) measured in HTS: healthy human airway epithelial tissue; for Level of intensity of expression in log2 measured by high-throughput sequencing, D0: stage D0; for Level of intensity of expression in log2 measured by high-throughput sequencing, D7: stage D7; for Level of intensity of expression in log2 measured by high-throughput sequencing, FC: stage FC; for Level of intensity of expression in log2 At the differentiated stage (WD) measured in HTS / Level of intensity of expression in log2 measured by high-throughput sequencing, WD: stage WD
How it was run: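 Differentiation time course at air-liquid interface: 0, 7, ~14 (first cilia) and ~21 days (fully differentiated). Sequencing counts per strand were normalized to 10^6 sequences and analysed by linear model with empirical Bayesian moderation.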

[3] = tested on: human airway epithelial cells (HAECs); assay: Agilent miRNA chips, miRNA expression at four stages of differentiation of HAECs; settings: for Modulation (ratio of the level of intensity of expression in log2 in two stages of differentiation) measured with the Agilent chips, D7 − D0 / Modulation (ratio of the level of intensity of expression in log2 in two stages of differentiation) measured with the Agilent chips, FC − D7 / Modulation (ratio of the level of intensity of expression in log2 in two stages of differentiation) measured with the Agilent chips, WD − D0 / Modulation (ratio of the level of intensity of expression in log2 in two stages of differentiation) measured with the Agilent chips, WD − FC / Level of intensity of expression in log2 measured with the Agilent chips, D0 / Level of intensity of expression in log2 measured with the Agilent chips, D7 / Level of intensity of expression in log2 measured with the Agilent chips, FC / Level of intensity of expression in log2 measured with the Agilent chips, WD: Table VI; for Modulation (ratio of the level of intensity of expression in log2 at two stages of differentiation), FC − D7 / Modulation (ratio of the level of intensity of expression in log2 at two stages of differentiation), WD − FC: Agilent miRNA chips, Table V; for Level of intensity of expression in log2 measured with the Agilent chips, D0: stage D0; for Level of intensity of expression in log2 measured with the Agilent chips, D7: stage D7; for Level of intensity of expression in log2 measured with the Agilent chips, FC: stage FC; for Level of intensity of expression in log2 measured with the Agilent chips, WD: stage WD
How it was run: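 Microarray v2 (866 human + 89 viral miRNAs; miRBase v.12.0). Input: RNA from the same donors as sequencing. Labelling/hybridization per kit protocol. Profiles cross-checked vs sequencing.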

Substance | Modulation of expression of the miRNAs in pyramidal cells (323(−)) relative to basal cells 323(+) [1] | Intensity of the level of expression in log2 in basal cells (323(+)) [1] | Intensity of the level of expression in log2 in pyramidal cells (323(−)) [1] | Modulation (ratio of the level of intensity of expression in log2 in two stages of differentiation) measured by high-throughput sequencing, D7 − D0 [2] | Modulation (ratio of the level of intensity of expression in log2 in two stages of differentiation) measured by high-throughput sequencing, FC − D7 [2] | Modulation (ratio of the level of intensity of expression in log2 in two stages of differentiation) measured by high-throughput sequencing, WD − D0 [2] | Modulation (ratio of the level of intensity of expression in log2 in two stages of differentiation) measured by high-throughput sequencing, WD − FC [2] | Level of intensity of expression in log2 At the differentiated stage (WD) measured in HTS [2] | Level of intensity of expression in log2 measured by high-throughput sequencing, D0 [2] | Level of intensity of expression in log2 measured by high-throughput sequencing, D7 [2] | Level of intensity of expression in log2 measured by high-throughput sequencing, FC [2] | Level of intensity of expression in log2 measured by high-throughput sequencing, WD [2] | Modulation (ratio of the level of intensity of expression in log2 in two stages of differentiation) measured with the Agilent chips, D7 − D0 [3] | Modulation (ratio of the level of intensity of expression in log2 in two stages of differentiation) measured with the Agilent chips, FC − D7 [3] | Modulation (ratio of the level of intensity of expression in log2 in two stages of differentiation) measured with the Agilent chips, WD − D0 [3] | Modulation (ratio of the level of intensity of expression in log2 in two stages of differentiation) measured with the Agilent chips, WD − FC [3] | Level of intensity of expression in log2 measured with the Agilent chips, D0 [3] | Level of intensity of expression in log2 measured with the Agilent chips, D7 [3] | Level of intensity of expression in log2 measured with the Agilent chips, FC [3] | Level of intensity of expression in log2 measured with the Agilent chips, WD [3] | further results
hsa-miR-193b: human miRNA, SEQ ID No. 14 (AACUGGCCCUCAAAGUCCCGCU; expressed or natural sequence; listed as Homo sapiens) | −3.57 | 3.90 log2 | 0.33 log2 | −1.17 log2 | −0.90 log2 | −1.60 log2 | 0.48 log2 | 11.67 log2 | 13.26 log2 | 12.09 log2 | 11.19 log2 | 11.67 log2 | −0.67 log2 | −1.19 log2 | −1.93 log2 | −0.07 log2 | 8.62 log2 | 7.95 log2 | 6.76 log2 | 6.69 log2 | cell type in which the miRNA is specifically expressed ([1]; sorted ciliated/pyramidal versus basal cells): more specific to the basal cells; Modulation (ratio of the level of intensity of expression in log2 in two stages of differentiation), D7 − D0 ([2]; HTS): −1.17 log2; Modulation (ratio of the level of intensity of expression in log2 in two stages of differentiation), FC − D7 ([2]; HTS): −0.90 log2; Modulation (ratio of the level of intensity of expression in log2 in two stages of differentiation), WD − FC ([2]; HTS): 0.48 log2; Abundance (%), D0 ([2]; HTS): 2.16%; Abundance (%), D7 ([2]; HTS): 0.96%; Abundance (%), FC ([2]; HTS): 0.50%; Abundance (%), WD ([2]; HTS): 0.52%; Modulation (ratio of the level of intensity of expression in log2 at two stages of differentiation), FC − D7 [3]: −1.19 log2; Modulation (ratio of the level of intensity of expression in log2 at two stages of differentiation), WD − FC [3]: −0.07 log2
hsa-miR-200a: human miRNA, SEQ ID No. 16 (UAACACUGUCUGGUAACGAUGU; expressed or natural sequence; listed as Homo sapiens) | −0.95 | 8.80 log2 | 7.85 log2 | 1.00 log2 | 0.67 log2 | 2.20 log2 | 0.54 log2 | 10.96 log2 | 9.02 log2 | 10.01 log2 | 10.68 log2 | 11.22 log2 | 1.94 log2 | 0.20 log2 | 2.20 log2 | 0.06 log2 | 8.64 log2 | 10.58 log2 | 10.79 log2 | 10.84 log2 | Modulation (ratio of the level of intensity of expression in log2 at two stages of differentiation), FC − D7 [3]: 0.20 log2; Modulation (ratio of the level of intensity of expression in log2 at two stages of differentiation), WD − FC [3]: 0.06 log2
hsa-miR-200b: human miRNA, SEQ ID No. 17 (UAAUACUGCCUGGUAAUGAUGA; expressed or natural sequence; listed as Homo sapiens) | −0.15 | 9.99 log2 | 9.84 log2 | 0.76 log2 | 0.56 log2 | 2.36 log2 | 1.03 log2 | 10.64 log2 | 8.60 log2 | 9.37 log2 | 9.93 log2 | 10.96 log2 | 2.01 log2 | −0.07 log2 | 2.11 log2 | 0.17 log2 | 9.93 log2 | 11.94 log2 | 11.87 log2 | 12.04 log2 | Modulation (ratio of the level of intensity of expression in log2 at two stages of differentiation), FC − D7 [3]: −0.07 log2; Modulation (ratio of the level of intensity of expression in log2 at two stages of differentiation), WD − FC [3]: 0.17 log2
hsa-miR-203: human miRNA, SEQ ID No. 19 (GUGAAAUGUUUAGGACCACUAG; expressed or natural sequence; listed as Homo sapiens) | −3.50 | 3.64 log2 | 0.14 log2 | 0.11 log2 | −0.21 log2 | 1.08 log2 | 1.18 log2 | 14.55 log2 | 13.50 log2 | 13.60 log2 | 13.39 log2 | 14.57 log2 | 0.97 log2 | −0.67 log2 | 0.44 log2 | 0.13 log2 | 10.64 log2 | 11.61 log2 | 10.95 log2 | 11.08 log2 | Modulation (ratio of the level of intensity of expression in log2 in two stages of differentiation), D7 − D0 ([2]; HTS): 0.11 log2; Modulation (ratio of the level of intensity of expression in log2 in two stages of differentiation), FC − D7 ([2]; HTS): −0.21 log2; Modulation (ratio of the level of intensity of expression in log2 in two stages of differentiation), WD − FC ([2]; HTS): 1.18 log2; Abundance (%), D0 ([2]; HTS): 2.53%; Level of intensity of expression in log2, D0 ([2]; HTS, ALI-D0 (proliferation)): 13.49 log2; Abundance (%), D7 ([2]; HTS): 2.73%; Abundance (%), FC ([2]; HTS): 2.29%; Abundance (%), WD ([2]; HTS): 3.92%
